Activity calls are given as the source filed them. The calls are words filed in the database; no cut-off is given here.

For orientation: MRT last means the average time that molecules of a dose stay in the body.

The nature of data set [1]: MRT (0 to t) in Sprague-Dawley rat at 60 mg/kg,po measured at 0.25 to 24 hrs post administration by LC-MS/MS analysis. The conditions noted are these: in vivo, time 0.25-24 hrs. It counts as ADME, organism-based.
The next data set concerns HUVEC. The data set can be described thus: Cytotoxicity against human HUVEC cells assessed as effect on survival at < 60 uM incubated for 24 hrs by MTT assay. It counts as toxicity, cell-based. A general note: Tetrazolium dyes change colour on reduction, which living cells bring about.
The next data set deals with PC-12. The data set can be described thus: Neuroprotective activity against amyloid beta (25 to 35)-induced rat PC12 cells assessed as decrease in IL-1beta expression level at 7.5 to 30 uM preincubated for 30 mins followed by amyloid beta (25 to 35) addition and measured after 24 hrs by western blot assay. The format is functional, cell-based. The conditions noted are these: dose 7.5-30 µM, time 24.5 hrs. (A western blot detects proteins with antibodies after separation by electrophoresis.)

A further data set deals with Mus musculus. The data set can be described thus: Antialzheimer activity against amyloid beta (25 to 35)-induced brain injury ICR mouse model assessed as attenuation of pathological change in hippocampal CA3 region at 12.5 to 50 mg/kg,po administrated for 21 days by hematoxylin and eosin staining based microscopic analysis. The format is functional, organism-based. The conditions noted are these: dose 12.5-50 mg/kg, time 21.0 day.

In data set [1], `CC1(C)CCC[C@](C)([C@H]2CC[C@]3(C)[C@@H]2[C@H](O)C[C@@H]2[C@@]4(C)CC[C@H](OC(=O)NCc5ccccc5)C(C)(C)[C@@H]4CC[C@]23C)O1` had an MRT last of 2.24 h. The Activity entry in the data set on HUVEC is “Non-Toxic”. The outcome with PC-12 and in the data set on Mus musculus was Active.
